According to patent publication US7358046B2, “Sensitivity test to predict efficacy of anti-cancer therapies” (Canbas Co., Ltd., priority 2003, dated 2008):
Entries after “also recorded” stand apart in the source; their conditions may differ. Non-standard residues stand in square brackets, D forms with d. No end group written: not given here. dPhe(F5) = N[C@H](Cc1c(F)c(F)c(F)c(F)c1F)C(=O)O; dBpa = N[C@H](Cc1ccc(C(=O)c2ccccc2)cc1)C(=O)O; dCha = N[C@H](CC1CCCCC1)C(=O)O

Columns and labels:
HCT-116 xenografts = test: Surrogate in vivo efficacy test: HCT-116 xenograft tumor assay; parameters: species or system SCID mice; conditions: for HCT-116 xenograft tumor growth, combination: intraperitoneal, two weeks
Protocol: HCT-116 cells were implanted by subcutaneous injection of the cells into male SCID mice (Severe Combined Immunodeficient mice, Charles River Lab., Wilmington, Mass.). Treatment was initiated when the tumor size reached about 0.2 cm^3 in size. The size of tumors was measured three times per week, using calipers. Tumor volumes were calculated as follows: volume (cm^3)=[width (mm)^2×length (mm)]/2000. Mean tumor sizes (volumes) with standard deviation were plotted (FIG. 1b). Animals were housed in accordance with guidelines from American Association for Laboratory Animal Care and the protocols were approved by institutional animal care committee of CanBas Co. Ltd
(§1) Established HCT-116 xenografts (0.2 cm^3) in SCID mice were treated for two weeks by intraperitoneal injection of the following: vehicle alone (DMSO, two times per week), CBDC402 (40 mg/kg; two times per week), CPT-11 (20 mg/kg; one time per week) or the combination of CBDC402 (two times per week) and CPT-11 (one time per week). […] The results correlate with the prediction based on results from the in vitro sensitivity test using CBDC004 as described above.
Surrogate in vivo efficacy test: A surrogate in vivo efficacy test measuring the effects of various compounds on HCT-116 xenograft tumor growth was carried out as described above, with the modification that CBDC004 was used instead of CBDC402.
as §1, with “week), CBDC004 (30” for “week), CBDC402 (40”, “mg/kg; three” for “mg/kg; two”

HCT-116 cells = test: In vitro sensitivity test: DNA content of cells by flow cytometry; type: cell-based, human; conditions: for change in DNA content (cell cycle distribution) of HCT-116 cells: compound alone, 2, 10, or 50 μM for 3 hr
Protocol: Cells from a human colon cancer derived cell line HCT-116 were used in an in vitro sensitivity test that measures DNA content of cells by flow cytometry, and in an in vivo efficacy test that measures xenograft tumor growth. The effects of conventional anti-cancer therapy CPT-11, novel candidate anti-cancer therapy CBDC402, a combination of the two compounds, or control treatments (vehicle), were measured in each test system and compared.
In vitro sensitivity test: HCT-116 cells (from ATCC) were cultured in McCOY5A medium (Sigma Chemical Co.) with L-glutamine (Sigma Chemical Co.), penicillin-streptomycin, and 10% fetal calf serum at 37° C. in 5% CO2/air. Cultured cells (at 1.6×10^5) were pelleted by centrifugation, and then re-suspended and incubated in 300 μl Krishan's solution (0.1% sodium citrate, 50 μg/ml propidium iodide, 20 μg/ml RNase A, 0.5% Nonidet P-40) for 1 h at 4° C. The quantity of DNA in each cell was determined using a fluorescence activated cell scanner (FACScan® Beckton Dickinson, Mountain View, Calif.), and results were analyzed using CELLQuest® software (Beckton Dickinson).
The DNA content of each cell was measured at 24 hr.
In vitro sensitivity test: The in vitro sensitivity test using HCT-116 cells and flow cytometry was carried out as described above, with the modification that CBDC004 was used instead of CBDC402. The DNA content of each cell was measured at 24 hr.

[1] = test system: MIAPaCa2 cells xenograft tumors; test: Surrogate in vivo efficacy test: MIAPaCa2 xenograft tumor assay; parameters: species or system SCID mice
Protocol: Surrogate in vivo efficacy test: A surrogate in vivo efficacy test using the xenograft tumor assay was carried out as described above, with modifications. MIAPaCa2 cells (n=5) were implanted by subcutaneous injection of the cells to male SCID mice (Charles River Lab., Wilmington, Mass.). Treatment was initiated when tumor size reached about 0.15 cm^3 in size. The size of tumors was measured three times per week, using calipers. Tumor volumes were calculated as follows: volume (cm^3)=[width (mm)^2×length (mm)]/2000. Mean tumor sizes (volumes) with standard deviation were plotted (FIG. 1b). Animals were housed in accordance with guidelines from American Association for Laboratory Animal Care and the protocols were approved by institutional animal care committee of CanBas Co. Ltd.
Established […] xenografts (0.2 cm^3) in SCID mice were treated two times each week for two weeks (i.e., on day 1, 5, 8, and 12) by intraperitoneal injection of the following: vehicle alone (DMSO); CBP501 (120 mg/m^2); cisplatin (CDDP, 3 mg/kg); a combination of CBP501 (30 mg/m^2) and cisplatin (CDDP, 3 mg/kg); a combination of CBP501 (60 mg/m^2) and cisplatin (CDDP, 3 mg/kg); or CBP501 (120 mg/m^2) and cisplatin (CDDP, 3 mg/kg).

MIAPaCa2 cells = test: In vitro sensitivity test: laser scanning cytometry of cultured xenograft tumor cells on chamber slides; conditions: for anti-cancer efficacy in vitro, human cancerous cells in culture: each compound alone (summary of Example 3)
Protocol: As a simulation of the sensitivity test for the clinical situation, established xenograft tumors of MIAPaCa2 cells in SCID mice were extracted from the mice and cultured in vitro in the presence or absence of a conventional anti-cancer therapy and a novel candidate anti-cancer therapy CBP501 (SEQ ID NO: 26), according to the protocol as follows.
Xenograft tumors of MIAPaCa2 cells were excised from xenograft tumor bearing mice and place in a 10 cm plate with 10 ml of complete culture medium (DMEM (Dainihonseiyaku Co., Osaka, Japan) with 2.5% horse serum (Invitrogen Co., Carlsbad, Calif.) for MIAPaCa2 with 10% fetal calf serum (Equitech-bio, Kerrville, Tex.) at 37° C. with 5% CO2/air). The tissue was sliced into small pieces and non-tumor tissue was removed to the extent possible. The sliced pieces were placed in another 10 cm plate with complete culture medium and minced with a razor blade. The cells were then dispersed in culture medium by pipetting, and centrifuged for 5 min at 1200×g.
The cell pellet was then incubated in buffer containing collagenase for 2 hours at 37° C. After centrifuging a second time, the cell pellet was incubated in buffer containing trypsin for 5 min at room temperature, then suspended in the culture medium, passed through nylon mesh, and re-centrifuged. Pelleted cells were resuspended and the resuspended cells were seeded onto chamber slides and cultured overnight in an incubator.
Cells in chamber slides were treated with anti-cancer therapies or control treatments as follows: control solution, CBP501 (SEQ ID NO: 26) at 10 μM, cisplatin (CDDP) at 10 μg/ml, or a combination of CBP501 and cisplatin were added to chamber slides and incubated for 3 hours. Culture medium was changed and chamber slides were cultured for an additional 24 to 48 hours.
At the beginning of the designated day (day 3, 4, or 5), medium was aspirated from chamber slides and cells were fixed by addition of 70% ethanol followed by incubation for 15 minutes at room temperature. The supernatant was discarded, and phosphate buffered saline with 50 μg/ml propidium iodide (Sigma, St. Louis, Mo.) with 0.1% RNase (Sigma) was added to the slides and incubated for 30 minutes at room temperature. Cells on the chamber slides were then analyzed by Laser Scanning Cytomery (LSC® System, with Olympus microscope).

[2] = compound 2, 10, 50 μM for 3 hr in combination with CPT-11 50 μM for 3 hr, measured at 24 hr
[3] = CPT-11 alone, 50 μM for 3 h, DNA content measured at 24 hr
[4] = CBP501 10 μM combined with cisplatin 10 μg/ml, 3 hours, then cultured 24 to 48 hours

`COc1ccc(OC(=O)c2ccc(Cl)cc2)cc1` [CBDC004, 4-Chloro-benzoic acid 4-methoxy-phenyl ester] was tested. Which “HCT-116 xenograft tumor growth” value (HCT-116 xenografts; CBDC004 alone, 30 mg/kg intraperitoneal, three times per week for two weeks) did it give?
Its value is “did not suppress tumor growth”.

What about the “HCT-116 xenograft tumor growth, combination” value (HCT-116 xenografts; CBDC004 in combination with CPT-11 (one time per week)) of the same molecule?
The value was “did not suppress tumor growth”.

What about the “change in DNA content / G2/M and G1 populations of HCT-116 cells, combination treatment” value (HCT-116 cells; [2]) of the same molecule?
The value was “did not change the DNA content more than CPT-11 alone”.

And the “change in DNA content (cell cycle distribution) of HCT-116 cells” value (HCT-116 cells; DNA content measured at 24 hr)?
Its value is “did not alter the DNA content”.

What does the source list for `Cc1ccc(OC(=O)c2ccc(Br)cc2)cc1` [CBDC402, 4-Bromo-benzoic acid p-tolyl ester]?
HCT-116 xenograft tumor growth, combination (HCT-116 xenografts; CBDC402 (two times per week) plus CPT-11 (one time per week)): strong tumor suppressive activity; HCT-116 xenograft tumor growth (HCT-116 xenografts; CBDC402 alone, 40 mg/kg intraperitoneal, two times per week for two weeks): did not suppress tumor growth significantly; change in DNA content / G2/M and G1 populations of HCT-116 cells, combination treatment (HCT-116 cells; [2]): decrease in the accumulation of both the CPT-11-induced G2/M population and G1 population; subG1 (dead cell) population of HCT-116 cells, combination treatment (HCT-116 cells; [2]): increase in the subG1 (dead cell) population; change in DNA content (cell cycle distribution) of HCT-116 cells (HCT-116 cells; DNA content measured at 24 hr): did not alter the DNA content

For `CCc1c2c(nc3ccc(OC(=O)N4CCC(N5CCCCC5)CC4)cc13)-c1cc3c(c(=O)n1C2)COC(=O)[C@]3(O)CC` [CPT-11, irinotecan, reference compound], which “HCT-116 xenograft tumor growth” value (HCT-116 xenografts; CPT-11 alone, 20 mg/kg intraperitoneal, one time per week for two weeks) is on record?
The value was “moderate tumor suppressive activity”.

What about the “change in cell cycle distribution (G1, G2/M populations) of HCT-116 cells” value (HCT-116 cells; [3]) of the same molecule?
The value was “changed the cell cycle distribution dramatically”.

And the “sub-G1 (dead cell) population of HCT-116 cells” value (HCT-116 cells; [3])?
Its value is “no increase in the sub-G1 population”.

Which xenograft tumor growth ([1]; cisplatin alone, 3 mg/kg intraperitoneal, two times each week for two weeks) does the source give for `N.N.[Cl][Pt][Cl]` [cisplatin, reference compound] here?
Its xenograft tumor growth is “little or no effect on tumor growth”.

And the “change in cell cycle distribution of cultured MIAPaCa2 xenograft tumor cells” value (MIAPaCa2 cells; cisplatin alone, 10 μg/ml for 3 hours, then cultured 24 to 48 hours)?
The value was “accumulation of cells in G2/M phase”.

What about the “anti-cancer efficacy in vitro, human cancerous cells in culture” value (MIAPaCa2 cells) of the same molecule?
Its value is “some anti-cancer efficacy”.

What does the source list for “(d-Bpa)(d-Ser)(d-Trp)(d-Ser)(d-Phe-2,3,4,5,6-F)(d-Cha)(d-Arg)(d-Arg)(d-Arg)(d-Gln)(d-Arg)(d-Arg) ([dBpa][dS][dW][dS][dPhe(F5)][dCha][dR][dR][dR][dQ][dR][dR]) [CBP501]”?
xenograft tumor growth, combination ([1]; CBP501 (30, 60 or 120 mg/m^2) combined with cisplatin 3 mg/kg, intraperitoneal, two times each week for two weeks): more effective than either compound alone; also recorded: significant inhibition of xenograft tumor growth; xenograft tumor growth ([1]; CBP501 alone, 120 mg/m^2 intraperitoneal, two times each week for two weeks (day 1, 5, 8, 12)): little or no effect on tumor growth; also recorded: did not significantly inhibit xenograft tumor growth; G1 and G2/M peaks of cultured MIAPaCa2 xenograft tumor cells, combination (MIAPaCa2 cells; [4]): dramatically decreased both the G1 and G2/M peaks; sub-G1 population of cultured MIAPaCa2 xenograft tumor cells, combination (MIAPaCa2 cells; [4]): increased the sub-G1 population; change in cell cycle distribution of cultured MIAPaCa2 xenograft tumor cells (MIAPaCa2 cells; CBP501 alone, 10 μM for 3 hours, then cultured 24 to 48 hours): cell cycle distribution was not significantly altered; cell death in the population of tumor cells by direct observation of cell morphology, combination (MIAPaCa2 cells; CBP501 combined with cisplatin): dramatic increase in cell death; anti-cancer effect in vitro, human cancerous cells in culture, combination (MIAPaCa2 cells; CBP501 combined with cisplatin (summary of Example 3)): more pronounced anti-cancer effect; anti-cancer efficacy in vitro, human cancerous cells in culture (MIAPaCa2 cells): some anti-cancer efficacy
